Assay [1] concerns BaF3. Put plainly: Antiproliferative activity against mouse BaF3 cells harbouring MPRIP-TRKA G595R mutant assessed as inhibition of cell growth measured after 72 hrs by CCK-8 method. As to conditions: BaF3, 72 h. The class given is functional, cell-based. For orientation: Tetrazolium dyes change colour on reduction, which living cells bring about.
Assay [2] has as its target High affinity nerve growth factor receptor (Homo sapiens, UniProt P04629).
Description: Inhibition of TRKA (unknown origin) incubated for 1 hr in presence of ATP by ELISA method
Assay [3] has as its system BaF3. Briefly: cells. As to conditions: Mus musculus, BaF3, 72 h.
Description: Antiproliferative activity against mouse BaF3 cells harbouring MPRIP-TRKA G667C mutant assessed as inhibition of cell growth measured after 72 hrs by CCK-8 method
Assay [4] has as its system BaF3. Put plainly: Antiproliferative activity against mouse BaF3 cells harbouring MPRIP-TRKA G595R mutant assessed as inhibition of cell growth at 1000 nmol/L measured after 72 hrs by CCK-8 method relative to control. The class given is functional.
Assay [5] concerns BaF3. Put plainly: cells. As to conditions: Mus musculus, BaF3, 72 h. The source holds these as a separate data set.
Description: Antiproliferative activity against mouse BaF3 cells harbouring xDFG (TRKA-G667C) mutation measured after 72 hrs by Cell-titer glo assay
The subject of assay [6] is BaF3. The class given is functional, cell-based. As to conditions: Mus musculus.

Chain of High affinity nerve growth factor receptor (P04629 whole entry): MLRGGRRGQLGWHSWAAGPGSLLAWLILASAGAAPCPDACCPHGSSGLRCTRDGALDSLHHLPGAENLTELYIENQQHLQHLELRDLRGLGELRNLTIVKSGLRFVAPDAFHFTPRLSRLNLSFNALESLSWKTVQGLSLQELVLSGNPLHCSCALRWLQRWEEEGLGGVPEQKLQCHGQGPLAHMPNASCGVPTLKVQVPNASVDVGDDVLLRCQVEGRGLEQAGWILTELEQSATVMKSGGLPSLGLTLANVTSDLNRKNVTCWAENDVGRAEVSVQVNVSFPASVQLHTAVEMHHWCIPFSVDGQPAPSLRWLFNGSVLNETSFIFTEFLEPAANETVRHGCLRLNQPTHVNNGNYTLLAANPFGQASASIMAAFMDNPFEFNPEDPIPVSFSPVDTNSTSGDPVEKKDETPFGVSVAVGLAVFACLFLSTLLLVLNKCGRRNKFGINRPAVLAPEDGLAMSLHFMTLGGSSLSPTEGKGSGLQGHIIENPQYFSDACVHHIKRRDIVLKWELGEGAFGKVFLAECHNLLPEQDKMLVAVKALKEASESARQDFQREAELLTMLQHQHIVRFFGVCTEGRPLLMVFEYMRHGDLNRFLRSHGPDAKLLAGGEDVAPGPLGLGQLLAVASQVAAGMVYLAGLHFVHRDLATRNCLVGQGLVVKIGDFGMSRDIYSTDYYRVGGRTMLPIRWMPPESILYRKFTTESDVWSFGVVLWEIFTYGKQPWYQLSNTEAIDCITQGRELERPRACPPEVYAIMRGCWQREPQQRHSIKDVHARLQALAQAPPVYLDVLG

The term IC50 denotes the concentration at which inhibition is half-maximal. Consider `CC1CN(Cc2ccc(NC(=O)c3cc(N4CCC[C@@H]4c4cc(F)ccc4F)c[nH]c3=O)cc2)CCN1S(=O)(=O)N1CCOCC1` (stereo not given in full), for which the values for the IC50 (with BaF3 [1]; in assay [2]; in the assay on BaF3 [3]) were greater than 1000 nM, 1.6 nM and 112 nM, respectively.

A word on the inhibition: it is how much of the control response was suppressed. For the compound `CCCN(CCC)Cc1ccc(NC(=O)c2cc(N3CCC[C@@H]3c3cc(F)ccc3F)c[nH]c2=O)cc1`, the inhibition at 1 µM with BaF3 [4] is 45.2%. In the assay with BaF3 [3], this compound came in with an IC50 of 184 nM.

As to `C[C@H]1CNC(=O)c2cnn3ccc(nc23)N[C@H](C)c2cc(F)ccc2O1` [REPOTRECTINIB], the IC50 with BaF3 [5] was 15 nM.

As for `C[C@@H]1CCc2ncc(F)cc2[C@H]2CCCN2c2ccn3ncc(c3n2)C(=O)N1` [SELITRECTINIB], the figures for the IC50 in the assay on BaF3 [1], in the assay with BaF3 [3] and with BaF3 [5] were 37.9 nM, 171 nM and 124 nM, respectively.

Take `C[C@@H](N)COc1ccc(-c2cnc3ccc(N[C@H](C)c4cccc(F)c4)nn23)cc1` [TALETRECTINIB]: the IC50 with BaF3 [6] stood at 304 nM.

These data come from ChEMBL document CHEMBL6182921, “Structural Optimization of Next-Generation TRK Inhibitors against Acquired Drug Resistance Mutations for the Treatment of Solid Tumors” (J Med Chem, 2025).
